{
  "source": "patent US6403554B2",
  "about": "“Polyunsaturated fatty acid derivatives and their use” (Ardenia Investments Ltd., priority 1998, dated 2002)",
  "origin": "cited, not measured here",
  "key": {"[1]": {"system": "human AFP (alpha-fetoprotein)", "conditions": "International Application PCT/EP99/04201; cited from earlier work"}, "AFP": {"molecular_target": "T1, AFP (Homo sapiens, UniProt P02771)", "T1 construct": "from tissue; host or cells: human cord blood", "T1 sequence (P02771 19-609)": "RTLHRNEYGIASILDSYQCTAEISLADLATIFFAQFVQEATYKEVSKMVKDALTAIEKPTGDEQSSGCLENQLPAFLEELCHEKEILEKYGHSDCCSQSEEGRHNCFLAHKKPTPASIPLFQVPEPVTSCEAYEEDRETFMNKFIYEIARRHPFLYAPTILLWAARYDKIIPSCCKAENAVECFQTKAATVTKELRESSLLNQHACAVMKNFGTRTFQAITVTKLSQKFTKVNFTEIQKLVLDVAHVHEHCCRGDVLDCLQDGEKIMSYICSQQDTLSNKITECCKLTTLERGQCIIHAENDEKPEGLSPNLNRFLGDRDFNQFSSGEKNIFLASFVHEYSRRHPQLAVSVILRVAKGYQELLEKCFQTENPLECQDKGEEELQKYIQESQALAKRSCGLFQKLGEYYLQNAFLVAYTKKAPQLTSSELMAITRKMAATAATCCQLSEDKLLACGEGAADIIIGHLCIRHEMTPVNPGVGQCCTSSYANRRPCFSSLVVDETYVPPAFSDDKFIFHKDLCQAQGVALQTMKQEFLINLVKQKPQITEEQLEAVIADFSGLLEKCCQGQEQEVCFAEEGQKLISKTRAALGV", "conditions": "International Application PCT/EP99/04201; cited from earlier work"}, "rats": {"system": "rats", "conditions": "injected into rats; cited from earlier work"}},
  "data": [
    {"smiles": "CCCCC/C=C\\C/C=C\\C/C=C\\C/C=C\\CCCC(=O)NCCOP(=O)(O)O", "note": "[Compound 5, N-(cis-5,8,11,14-eicosatetraenoyl)-O-phospho-2-aminoethanol]", "values": [
      {"measurement": "molecules of N-AAP in micelle linked to AFP", "setting": "[1]", "result": "up to 300 molecules"}
    ]},
    {"smiles": "CCCCC/C=C\\C/C=C\\C/C=C\\C/C=C\\CCCC(=O)NCCOP(=O)(O)O", "note": "[Compound 5, N-arachidonoyl-o-phospho-2-aminoethanol]", "values": [
      {"measurement": "Molecules of compound in the micelle reversibly linked to AFP", "setting": "AFP", "result": "up to 300 molecules"}
    ]},
    {"smiles": "CCCCCCCC/C=C\\CCCCCCCC(N)=O", "note": "[cis-9,10-octadecenoamide]", "values": [
      {"measurement": "physiological sleep", "setting": "rats", "result": "induced physiological sleep"}
    ]}
  ]
}
